Assay results published in PubChem BioAssay AID1963845 (Molecular Pharmacology Branch, DTP, NCI, 2024).

Test system: 429239-143-T-J1-PDC complex spheroid viability
Experiment: Anticancer human tumor 429239-143-T-J1-PDC patient-derived small cell lung carcinoma cell line growth inhibition [POLQ]
Settings: for IC50: curve of first compound; for viability, T/C: stronger effect = lower value
Method in brief: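 Complex spheroid viability model combining PDC tumour cells with endothelial (HUVEC) and MSC stromal cells. Novobiocin, ART-558 or RP6685 were tested singly and in combination with standard and investigational anticancer drugs. Each was titrated in half-log steps from near clinical Cmax, or from 10 microM where Cmax was unknown.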

[1] = second compound 0.0316 µM, first compound 0.0316 µM
[2] = second compound 0.0316 µM, first compound 0.1 µM
[3] = second compound 0.0316 µM, first compound 0.316 µM
[4] = second compound 0.0316 µM, first compound 1 µM
[5] = second compound 0.0316 µM, first compound 3.16 µM
[6] = second compound 0.0316 µM, first compound 10 µM
[7] = second compound 0.1 µM, first compound 0.0316 µM
[8] = second compound 0.1 µM, first compound 0.1 µM
[9] = second compound 0.1 µM, first compound 0.316 µM
[10] = second compound 0.1 µM, first compound 1 µM
[11] = second compound 0.1 µM, first compound 3.16 µM
[12] = second compound 0.1 µM, first compound 10 µM
[13] = second compound 0.316 µM, first compound 0.0316 µM
[14] = second compound 0.316 µM, first compound 0.1 µM
[15] = second compound 0.316 µM, first compound 0.316 µM
[16] = second compound 0.316 µM, first compound 1 µM
[17] = second compound 0.316 µM, first compound 3.16 µM
[18] = second compound 0.316 µM, first compound 10 µM
[19] = second compound 1 µM, first compound 0.0316 µM
[20] = second compound 1 µM, first compound 0.1 µM
[21] = second compound 1 µM, first compound 0.316 µM
[22] = second compound 1 µM, first compound 1 µM
[23] = second compound 1 µM, first compound 3.16 µM
[24] = second compound 1 µM, first compound 10 µM
[25] = second compound 3.16 µM, first compound 0.0316 µM
[26] = second compound 3.16 µM, first compound 0.1 µM
[27] = second compound 3.16 µM, first compound 0.316 µM
[28] = second compound 3.16 µM, first compound 1 µM
[29] = second compound 3.16 µM, first compound 3.16 µM
[30] = second compound 3.16 µM, first compound 10 µM
[31] = second compound 10 µM, first compound 0.0316 µM
[32] = second compound 10 µM, first compound 0.1 µM
[33] = second compound 10 µM, first compound 0.316 µM
[34] = second compound 10 µM, first compound 1 µM
[35] = second compound 10 µM, first compound 3.16 µM
[36] = second compound 10 µM, first compound 10 µM
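Note: luminescence signal used as surrogate measure of viable cells; spheroids exposed to compounds for seven days before readout.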
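Throughout, for viability, T/C: 100% = DMSO vehicle control viability as luminescence relative to vehicle.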

C#Cc1c(F)ccc2cc(O)cc(-c3ncc4c(N5CC6CCC(C5)N6)nc(OCC56CCCN5CC(F)C6)nc4c3F)c12 (stereo not given) + COC1C(OC(N)=O)C(O)C(Oc2ccc3c(O)c(NC(=O)c4ccc(O)c(CC=C(C)C)c4)c(=O)oc3c2C)OC1(C)C
IC50 (second compound 0.0316 µM): > 10 µM | IC50 (second compound 0.1 µM): > 10 µM | IC50 (second compound 0.316 µM): > 10 µM | IC50 (second compound 1 µM): > 10 µM | IC50 (second compound 3.16 µM): > 10 µM | IC50 (second compound 10 µM): > 10 µM | viability, T/C [1]: 109% | viability, T/C [2]: 92.7% | viability, T/C [3]: 113% | viability, T/C [4]: 92.9% | viability, T/C [5]: 99.9% | viability, T/C [6]: 92.9% | viability, T/C [7]: 104% | viability, T/C [8]: 113% | viability, T/C [9]: 103% | viability, T/C [10]: 97.7% | viability, T/C [11]: 93.2% | viability, T/C [12]: 91.1% | viability, T/C [13]: 104% | viability, T/C [14]: 95.3% | viability, T/C [15]: 99.2% | viability, T/C [16]: 98.8% | viability, T/C [17]: 95.2% | viability, T/C [18]: 106% | viability, T/C [19]: 94.7% | viability, T/C [20]: 106% | viability, T/C [21]: 96% | viability, T/C [22]: 105% | viability, T/C [23]: 98.8% | viability, T/C [24]: 97.4% | viability, T/C [25]: 103% | viability, T/C [26]: 101% | viability, T/C [27]: 102% | viability, T/C [28]: 92.9% | viability, T/C [29]: 114% | viability, T/C [30]: 98.2% | viability, T/C [31]: 101% | viability, T/C [32]: 98.7% | viability, T/C [33]: 91.5% | viability, T/C [34]: 92.5% | viability, T/C [35]: 106% | viability, T/C [36]: 102%

C=CC(=O)N1CCN(c2nc(=O)n(-c3c(C)ccnc3C(C)C)c3nc(-c4c(O)cccc4F)c(F)cc23)C(C)C1 (stereo not given) + COC1C(OC(N)=O)C(O)C(Oc2ccc3c(O)c(NC(=O)c4ccc(O)c(CC=C(C)C)c4)c(=O)oc3c2C)OC1(C)C
IC50 (second compound 0.0316 µM): > 10 µM | IC50 (second compound 0.1 µM): > 10 µM | IC50 (second compound 0.316 µM): > 10 µM | IC50 (second compound 1 µM): > 10 µM | IC50 (second compound 3.16 µM): > 10 µM | IC50 (second compound 10 µM): > 10 µM | viability, T/C [1]: 107% | viability, T/C [2]: 89.5% | viability, T/C [3]: 94% | viability, T/C [4]: 94.6% | viability, T/C [5]: 107% | viability, T/C [6]: 112% | viability, T/C [7]: 104% | viability, T/C [8]: 94.3% | viability, T/C [9]: 93.6% | viability, T/C [10]: 104% | viability, T/C [11]: 87.9% | viability, T/C [12]: 97.7% | viability, T/C [13]: 96.7% | viability, T/C [14]: 90.8% | viability, T/C [15]: 91.7% | viability, T/C [16]: 91.7% | viability, T/C [17]: 103% | viability, T/C [18]: 101% | viability, T/C [19]: 98.4% | viability, T/C [20]: 94.6% | viability, T/C [21]: 99.8% | viability, T/C [22]: 96.6% | viability, T/C [23]: 103% | viability, T/C [24]: 101% | viability, T/C [25]: 94.9% | viability, T/C [26]: 107% | viability, T/C [27]: 95.3% | viability, T/C [28]: 95.3% | viability, T/C [29]: 98.7% | viability, T/C [30]: 103% | viability, T/C [31]: 79.5% | viability, T/C [32]: 84.8% | viability, T/C [33]: 91.5% | viability, T/C [34]: 87.7% | viability, T/C [35]: 104% | viability, T/C [36]: 103%

CC(C)n1c(=O)n(C)c2cnc3cc(F)c(-c4ccc(OCCCN5CCCCC5)nc4)cc3c21 + COC1C(OC(N)=O)C(O)C(Oc2ccc3c(O)c(NC(=O)c4ccc(O)c(CC=C(C)C)c4)c(=O)oc3c2C)OC1(C)C
IC50 (second compound 0.0316 µM): > 10 µM | IC50 (second compound 0.1 µM): > 10 µM | IC50 (second compound 0.316 µM): > 10 µM | IC50 (second compound 1 µM): > 10 µM | IC50 (second compound 3.16 µM): > 10 µM | IC50 (second compound 10 µM): > 10 µM | viability, T/C [1]: 107% | viability, T/C [2]: 86.6% | viability, T/C [3]: 99% | viability, T/C [4]: 109% | viability, T/C [5]: 104% | viability, T/C [6]: 85.4% | viability, T/C [7]: 102% | viability, T/C [8]: 93.7% | viability, T/C [9]: 82.7% | viability, T/C [10]: 96.8% | viability, T/C [11]: 82.9% | viability, T/C [12]: 84.7% | viability, T/C [13]: 109% | viability, T/C [14]: 91% | viability, T/C [15]: 82.3% | viability, T/C [16]: 103% | viability, T/C [17]: 90.6% | viability, T/C [18]: 72.5% | viability, T/C [19]: 93.2% | viability, T/C [20]: 104% | viability, T/C [21]: 91.5% | viability, T/C [22]: 96.9% | viability, T/C [23]: 81.5% | viability, T/C [24]: 70.2% | viability, T/C [25]: 101% | viability, T/C [26]: 84.8% | viability, T/C [27]: 90.9% | viability, T/C [28]: 100% | viability, T/C [29]: 87.6% | viability, T/C [30]: 83.6% | viability, T/C [31]: 86.9% | viability, T/C [32]: 85.8% | viability, T/C [33]: 88.7% | viability, T/C [34]: 102% | viability, T/C [35]: 74% | viability, T/C [36]: 88.4%

CC1COCCN1c1cc(-c2ccnn2C)c2ccnc(-c3ccn[nH]3)c2n1 (stereo not given) + COC1C(OC(N)=O)C(O)C(Oc2ccc3c(O)c(NC(=O)c4ccc(O)c(CC=C(C)C)c4)c(=O)oc3c2C)OC1(C)C
IC50 (second compound 0.0316 µM): 0.0822 µM | IC50 (second compound 0.1 µM): 0.0767 µM | IC50 (second compound 0.316 µM): 0.0709 µM | IC50 (second compound 1 µM): 0.116 µM | IC50 (second compound 3.16 µM): 0.104 µM | IC50 (second compound 10 µM): 0.0891 µM | viability, T/C [1]: 85.1% | viability, T/C [2]: 40.2% | viability, T/C [3]: 27.5% | viability, T/C [4]: 12.9% | viability, T/C [5]: 10.1% | viability, T/C [6]: 8.09% | viability, T/C [7]: 71.9% | viability, T/C [8]: 42% | viability, T/C [9]: 28.8% | viability, T/C [10]: 13.6% | viability, T/C [11]: 8.87% | viability, T/C [12]: 10.7% | viability, T/C [13]: 75.5% | viability, T/C [14]: 35.2% | viability, T/C [15]: 28.5% | viability, T/C [16]: 13.1% | viability, T/C [17]: 10.9% | viability, T/C [18]: 9.18% | viability, T/C [19]: 79.2% | viability, T/C [20]: 53.4% | viability, T/C [21]: 27.6% | viability, T/C [22]: 15.6% | viability, T/C [23]: 10.5% | viability, T/C [24]: 10.6% | viability, T/C [25]: 83.8% | viability, T/C [26]: 50.1% | viability, T/C [27]: 29.3% | viability, T/C [28]: 14.2% | viability, T/C [29]: 10.6% | viability, T/C [30]: 9.32% | viability, T/C [31]: 72.7% | viability, T/C [32]: 46.7% | viability, T/C [33]: 28% | viability, T/C [34]: 13.1% | viability, T/C [35]: 9.4% | viability, T/C [36]: 9.29%

CCc1cc2c(N3CCc4c(cc(Cn5ccnc5)cc4-c4cn(C)nc4C(F)(F)F)C3=O)ccnc2c(OC)n1 + COC1C(OC(N)=O)C(O)C(Oc2ccc3c(O)c(NC(=O)c4ccc(O)c(CC=C(C)C)c4)c(=O)oc3c2C)OC1(C)C
IC50 (second compound 0.0316 µM): 2.76 µM | IC50 (second compound 0.1 µM): 2.63 µM | IC50 (second compound 0.316 µM): 2.66 µM | IC50 (second compound 1 µM): 2.27 µM | IC50 (second compound 3.16 µM): 1.72 µM | IC50 (second compound 10 µM): 0.843 µM | viability, T/C [1]: 93.4% | viability, T/C [2]: 96.9% | viability, T/C [3]: 71.1% | viability, T/C [4]: 68.2% | viability, T/C [5]: 45.8% | viability, T/C [6]: 39.6% | viability, T/C [7]: 107% | viability, T/C [8]: 93% | viability, T/C [9]: 69.5% | viability, T/C [10]: 74% | viability, T/C [11]: 42.3% | viability, T/C [12]: 32.6% | viability, T/C [13]: 86.2% | viability, T/C [14]: 74.3% | viability, T/C [15]: 73.5% | viability, T/C [16]: 65.5% | viability, T/C [17]: 45.1% | viability, T/C [18]: 33.4% | viability, T/C [19]: 89.7% | viability, T/C [20]: 83.9% | viability, T/C [21]: 61.8% | viability, T/C [22]: 62% | viability, T/C [23]: 49.2% | viability, T/C [24]: 32.8% | viability, T/C [25]: 96.7% | viability, T/C [26]: 74.8% | viability, T/C [27]: 71.5% | viability, T/C [28]: 50.5% | viability, T/C [29]: 46.4% | viability, T/C [30]: 37.3% | viability, T/C [31]: 91.8% | viability, T/C [32]: 85.7% | viability, T/C [33]: 67.8% | viability, T/C [34]: 46.7% | viability, T/C [35]: 40.2% | viability, T/C [36]: 39.6%
